Results taken from ChEMBL document CHEMBL3763013, “Prospective of curcumin, a pleiotropic signalling molecule from Curcuma longa in the treatment of Glioblastoma” (Eur J Med Chem, 2016).

What was measured:
[1] = Tmax in human at 10 g, po administered as single dose; assay type: ADME, organism-based; conditions: in vivo
[2] = Drug uptake in human malignant colorectal tissue at 3.6 g/day, po; assay type: ADME
[3] = Tmax in human at 12 g, po administered as single dose; assay type: ADME, organism-based; conditions: in vivo
[4] = Drug metabolism in human urine assessed as compound glucuronide conjugate at 3.6 g/day, po measured after 0.5 and 1 hr; assay type: ADME, organism-based; conditions: in vivo
Plasma [5] = experiment: Plasma concentration in human at 2 g, po; assay type: ADME
Plasma [6] = experiment: Drug metabolism in human plasma assessed as compound glucuronide conjugate at 3.6 g/day, po measured after 0.5 and 1 hr; assay type: ADME, organism-based
[7] = Plasma concentration in human at 3.6 g/day, po measured after 0.5 and 1 hr; assay type: ADME, organism-based
[8] = Cmax in human at 12 g, po administered as single dose; assay type: ADME, organism-based; parameters: dose 12 g, route oral; conditions: in vivo
Homo sapiens = experiment: Drug metabolism in human assessed as ratio of glucuronide to sulfate at 10 and 12 g, po administered as single dose; assay type: ADME, organism-based; conditions: in vivo
[9] = Drug uptake in human serum at 4 g/day, po administered for 3 months; assay type: ADME, organism-based; conditions: read-out: Drug uptake
[10] = Half life in human at 12 g, po administered as single dose; assay type: ADME, organism-based; conditions: in vivo
[11] = Drug uptake in human normal colorectal tissue at 3.6 g/day, po; assay type: ADME
[12] = Cmax in human at 10 g, po administered as single dose; assay type: ADME, organism-based; parameters: dose 10 g, route oral; conditions: in vivo
[13] = Drug uptake in human serum at 6 g/day, po administered for 3 months; assay type: ADME, organism-based; conditions: read-out: Drug uptake
[14] = Half life in human at 10 g, po administered as single dose; assay type: ADME, organism-based; conditions: in vivo
U138MG = experiment: Inhibition of PI3K in human U138MG cells assessed as decrease in phosphorylated AKT level by western blot analysis; assay type: cell-based
Plasma [15] = experiment: Drug metabolism in human plasma assessed as compound sulfate conjugate at 3.6 g/day, po measured after 0.5 and 1 hr; assay type: ADME, organism-based
[16] = Drug uptake in human serum at 8 g/day, po administered for 3 months; assay type: ADME, organism-based; conditions: read-out: Drug uptake
[17] = Drug metabolism in human urine assessed as compound sulfate conjugate at 3.6 g/day, po measured after 0.5 and 1 hr; assay type: ADME, organism-based; conditions: in vivo
[18] = Drug excretion in human urine at 3.6 g/day, po; assay type: ADME, tissue-based

SMILES: COc1cc(/C=C/C(=O)CC(=O)/C=C/c2ccc(O)c(OC)c2)ccc1O [CURCUMIN]
- Tmax [1]: 3.29 h
- Drug uptake [2]: 7.7 nmol/g
- Tmax [3]: 3.29 h
- Drug metabolism [4]: 210 nmol/L
- Cp (Plasma [5]): 10 ng/mL
- Drug metabolism (Plasma [6]): 15.8 nmol/L
- concentration at 1 h [7]: 11.1 nM
- Cmax [8]: 1730 ng/mL
- Ratio (Homo sapiens): 1.92
- concentration at 3 months [9]: 510 nM
- half-life [10]: 6.77 h
- Drug uptake [11]: 12.7 nmol/g
- Cmax [12]: 2300 ng/mL
- concentration at 3 months [13]: 630 nM
- half-life [14]: 6.77 h
- inhibition (U138MG): 80%
- Drug metabolism (Plasma [15]): 8.9 nmol/L
- concentration at 3 months [16]: 1770 nM
- Drug metabolism [17]: 19 nmol/L
- Drug excretion [18]: 0.1 µmol/L
